# Laboratory results published in US20220119354A1, “DIAMINO-SUBSTITUTED PYRIDINES AND PYRIMIDINES AS HERBICIDES” (FMC Corporation, priority 2019, published 2022).
# What was measured:
# Type in all cases: in vivo
# [1] = test system: pigweed (Amaranthus retroflexus); experiment: Test A preemergence, pigweed; conditions: 0 to 100 scale
# How it was run: (§1)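 Compound, in a non-phytotoxic solvent blend containing surfactant, is sprayed onto soil immediately after sowing or onto young plants (one- to two-leaf, 2–10 cm). After roughly 10 d under greenhouse conditions, injury is judged by eye relative to untreated plants on a 0–100 control scale.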
# [2] = test system: barnyardgrass (Echinochloa crus-galli); experiment: Test A postemergence, barnyardgrass; conditions: 0 to 100 scale
# How it was run: as §1
# [3] = test system: corn (Zea mays); experiment: Test A postemergence, corn; conditions: 0 to 100 scale
# How it was run: as §1
# [4] = test system: wheat (Triticum aestivum); experiment: Test A postemergence, wheat; conditions: 0 to 100 scale
# How it was run: as §1
# [5] = test system: kochia (Kochia scoparia); experiment: Test A postemergence, kochia; conditions: 0 to 100 scale
# How it was run: as §1
# [6] = test system: rice (Oryza sativa); experiment: Test B flooded paddy test, rice; conditions: Flood, 250 g ai/ha, applied to paddy water, 2-leaf stage, visual evaluation after 13 to 15 d
# How it was run: (§2)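 Rating: 0 = no effect, 100 = complete control, visual, relative to untreated plants. Conditions: 2-leaf stage, 3 cm flood kept constant, compound put directly into water, 13–15 d greenhouse.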
# [7] = test system: foxtail, giant (Setaria faberii); experiment: Test A preemergence, giant foxtail; conditions: 0 to 100 scale
# How it was run: as §1
# [8] = test system: kochia (Kochia scoparia); experiment: Test A preemergence, kochia; conditions: 0 to 100 scale
# How it was run: as §1
# [9] = test system: galium (catchweed bedstraw, Galium aparine); experiment: Test A postemergence, galium; conditions: 0 to 100 scale
# How it was run: as §1
# [10] = test system: foxtail, giant (Setaria faberii); experiment: Test A postemergence, giant foxtail; conditions: 0 to 100 scale
# How it was run: as §1
# [11] = test system: blackgrass (Alopecurus myosuroides); experiment: Test A postemergence, blackgrass; conditions: 0 to 100 scale
# How it was run: as §1
# [12] = test system: pigweed (Amaranthus retroflexus); experiment: Test A postemergence, pigweed; conditions: 0 to 100 scale
# How it was run: as §1
# [13] = test system: barnyardgrass (Echinochloa crus-galli); experiment: Test B flooded paddy test, barnyardgrass; conditions: Flood, 250 g ai/ha, applied to paddy water, 2-leaf stage, visual evaluation after 13 to 15 d
# How it was run: as §2
# [14] = test system: ducksalad (Heteranthera limosa); experiment: Test B flooded paddy test, ducksalad; conditions: Flood, 250 g ai/ha, applied to paddy water, 2-leaf stage, visual evaluation after 13 to 15 d
# How it was run: as §2
# [15] = test system: ragweed (common ragweed, Ambrosia elatior); experiment: Test A postemergence, ragweed; conditions: 0 to 100 scale
# How it was run: as §1
# [16] = test system: ragweed (common ragweed, Ambrosia elatior); experiment: Test A preemergence, ragweed; conditions: 0 to 100 scale
# How it was run: as §1
# [17] = test system: ryegrass, Italian (Lolium multiflorum); experiment: Test A preemergence, Italian ryegrass; conditions: 0 to 100 scale
# How it was run: as §1
# [18] = test system: barnyardgrass (Echinochloa crus-galli); experiment: Test A preemergence, barnyardgrass; conditions: 0 to 100 scale
# How it was run: as §1
# [19] = test system: sedge, umbrella (small-flower umbrella sedge, Cyperus difformis); experiment: Test B flooded paddy test, umbrella sedge; conditions: Flood, 250 g ai/ha, applied to paddy water, 2-leaf stage, visual evaluation after 13 to 15 d
# How it was run: as §2
# [20] = test system: ryegrass, Italian (Lolium multiflorum); experiment: Test A postemergence, Italian ryegrass; conditions: 0 to 100 scale
# How it was run: as §1
Compound,"Plant response rating, Pigweed ([1]; 125 g ai/ha)","Plant response rating, Pigweed ([1]; 500 g ai/ha)","Plant response rating, Barnyardgrass ([2]; 125 g ai/ha)","Plant response rating, Barnyardgrass ([2]; 500 g ai/ha)","Plant response rating, Corn ([3]; 125 g ai/ha)","Plant response rating, Corn ([3]; 500 g ai/ha)","Plant response rating, Wheat ([4]; 125 g ai/ha)","Plant response rating, Wheat ([4]; 500 g ai/ha)","Plant response rating, Kochia ([5]; 125 g ai/ha)","Plant response rating, Kochia ([5]; 500 g ai/ha)","Plant response rating, Rice (0 to 100 scale, 0 is no effect, 100 is complete control) [6]","Plant response rating, Foxtail, Giant ([7]; 125 g ai/ha)","Plant response rating, Foxtail, Giant ([7]; 500 g ai/ha)","Plant response rating, Kochia ([8]; 125 g ai/ha)","Plant response rating, Kochia ([8]; 500 g ai/ha)","Plant response rating, Galium ([9]; 125 g ai/ha)","Plant response rating, Galium ([9]; 500 g ai/ha)","Plant response rating, Foxtail, Giant ([10]; 125 g ai/ha)","Plant response rating, Foxtail, Giant ([10]; 500 g ai/ha)","Plant response rating, Blackgrass ([11]; 125 g ai/ha)",other results
C[C@@H](Nc1ncc(C(F)(F)F)c(N)n1)c1ccc2ccccc2c1 [Compound 1],10,90,0,0,0,0,0,0,0,50,0,0,30,0,10,30,70,0,0,0,"Plant response rating, Blackgrass ([11]; 500 g ai/ha): 0; Plant response rating, Pigweed ([12]; 125 g ai/ha): 80; Plant response rating, Pigweed ([12]; 500 g ai/ha): 100; Plant response rating, Barnyardgrass (0 to 100 scale, 0 is no effect, 100 is complete control) [13]: 0; Plant response rating, Ducksalad (0 to 100 scale, 0 is no effect, 100 is complete control) [14]: 0; Plant response rating, Ragweed ([15]; 125 g ai/ha): 0; Plant response rating, Ragweed ([15]; 500 g ai/ha): 50; Plant response rating, Ragweed ([16]; 125 g ai/ha): 0; Plant response rating, Ragweed ([16]; 500 g ai/ha): 0; Plant response rating, Ryegrass, Italian ([17]; 125 g ai/ha): 0; Plant response rating, Ryegrass, Italian ([17]; 500 g ai/ha): 0; Plant response rating, Barnyardgrass ([18]; 125 g ai/ha): 0; Plant response rating, Barnyardgrass ([18]; 500 g ai/ha): 0; Plant response rating, Sedge, Umbrella (0 to 100 scale, 0 is no effect, 100 is complete control) [19]: 0; Plant response rating, Ryegrass, Italian ([20]; 125 g ai/ha): 0; Plant response rating, Ryegrass, Italian ([20]; 500 g ai/ha): 20"
C[C@@H](Nc1ncc(C(F)(F)F)c(N)n1)c1cc2cc(Cl)ccc2o1 [Compound 2],10,20,0,10,0,0,0,0,0,0,0,0,0,0,0,0,30,0,0,0,"Plant response rating, Blackgrass ([11]; 500 g ai/ha): 0; Plant response rating, Pigweed ([12]; 125 g ai/ha): 40; Plant response rating, Pigweed ([12]; 500 g ai/ha): 90; Plant response rating, Barnyardgrass (0 to 100 scale, 0 is no effect, 100 is complete control) [13]: 0; Plant response rating, Ducksalad (0 to 100 scale, 0 is no effect, 100 is complete control) [14]: 0; Plant response rating, Ragweed ([15]; 125 g ai/ha): 0; Plant response rating, Ragweed ([15]; 500 g ai/ha): 20; Plant response rating, Ragweed ([16]; 125 g ai/ha): 0; Plant response rating, Ragweed ([16]; 500 g ai/ha): 0; Plant response rating, Ryegrass, Italian ([17]; 125 g ai/ha): 0; Plant response rating, Ryegrass, Italian ([17]; 500 g ai/ha): 0; Plant response rating, Barnyardgrass ([18]; 125 g ai/ha): 0; Plant response rating, Barnyardgrass ([18]; 500 g ai/ha): 0; Plant response rating, Sedge, Umbrella (0 to 100 scale, 0 is no effect, 100 is complete control) [19]: 0; Plant response rating, Ryegrass, Italian ([20]; 125 g ai/ha): 0; Plant response rating, Ryegrass, Italian ([20]; 500 g ai/ha): 0"
C[C@@H](Nc1ncc(C(F)(F)F)c(N)n1)c1cccc2ccccc12 [Compound 3],100,100,20,80,0,10,20,0,30,90,0,10,90,30,100,30,90,0,40,0,"Plant response rating, Blackgrass ([11]; 500 g ai/ha): 30; Plant response rating, Pigweed ([12]; 125 g ai/ha): 90; Plant response rating, Pigweed ([12]; 500 g ai/ha): 100; Plant response rating, Barnyardgrass (0 to 100 scale, 0 is no effect, 100 is complete control) [13]: 0; Plant response rating, Ducksalad (0 to 100 scale, 0 is no effect, 100 is complete control) [14]: 30; Plant response rating, Ragweed ([15]; 125 g ai/ha): 30; Plant response rating, Ragweed ([15]; 500 g ai/ha): 90; Plant response rating, Ragweed ([16]; 125 g ai/ha): 100; Plant response rating, Ragweed ([16]; 500 g ai/ha): 100; Plant response rating, Ryegrass, Italian ([17]; 125 g ai/ha): 20; Plant response rating, Ryegrass, Italian ([17]; 500 g ai/ha): 90; Plant response rating, Barnyardgrass ([18]; 125 g ai/ha): 10; Plant response rating, Barnyardgrass ([18]; 500 g ai/ha): 100; Plant response rating, Sedge, Umbrella (0 to 100 scale, 0 is no effect, 100 is complete control) [19]: 65; Plant response rating, Ryegrass, Italian ([20]; 125 g ai/ha): 0; Plant response rating, Ryegrass, Italian ([20]; 500 g ai/ha): 0"
